Assays:
[1] = tested on: CB1 related cannabimimetic activity; assay: Safety: body temperature, catalepsy, spontaneous locomotor activity, elevated plus maze, sensitivity to touch; format: in vivo, ICR male mice; settings: for adverse cannabimimetic activities in any of the parameters monitored: 2 mg/kg i.v.
Method: In the present study, impact of compounds of the invention on the central nervous system was measured by monitoring the body temperature, catalepsy and spontaneous locomotor activity of rodents. These activities are part of the Tetrad assays which are indicative, if all parameters are affected, of CB1 mediated activity. In addition, lack of CNS psychomimetic effect was assessed in the elevated plus maze model. Finally, sensitivity to touch was determined in order to evaluate peripheral CB1 related activity.
ICR male mice (average body weight 25 g, Harlan, Israel) were administered the compounds of the invention i.v. at a dose of 2 mg/kg and at a volume dose of 5 ml/kg. The psychoactive cannabinoid HU-210 was used as positive control at the 100-fold lower dose of 0.02 mg/kg i.v. The following measurements were made starting 15 minutes after compound administration. All tests were completed for each animal within approximately 10 minutes. Rectal temperature was monitored using a thermistor probe (YSI model 400, USA). Spontaneous locomotion was assessed using the open field methodology. The number of squares crossed by the animals were recorded and analyzed during a period of three minutes. At the end of the open field test, the animals were tested for catalepsy symptoms. This was carried out by gently forcing the animal to stand on its hind paws when its front paws are holding on an elevated beam. The time for the animal to step down of the beam was measured in seconds. A normal animal withdraws the beam immediately whereas cataleptic animal tend to stay on the beam. The longer the animal stays leaning on the beam, the more cataleptic the animal is. The behavior of the animals was then assessed in the elevated plus maze. The elevated plus maze consists of two open arms and two arms that are enclosed by high walls (arms 30×10 cm, wall height 20 cm). The elevated plus maze is usually elevated 80 cm above the floor. The mouse is placed on the maze head facing an open arm, and the time spent in the different compartments of the maze (open arms, closed arms and central area) are measured for the next 5 minutes. Results are expressed as percent of the time spent in the open arms, normal animals preferring to stay in the closed arms of the maze. Finally, animals were gently touched by an observer blinded for the treatment group and their sensitivity scored according to the following scale: 0 not sensitive, 1 sensitive and 2 highly sensitive. Results are expressed as average±SEM. At the end of the study, the animals were euthanized.

Human CB1 Receptor = target: T1, Human CB1 Receptor (Homo sapiens, UniProt P21554); assay: [35S]GTPγS-binding assay, hCB1; format: biochemical; settings: NB = no binding; for Emax: upper plateau of curve
T1 construct: expressed in transfected cells; host or cells: HEK-293 cells (membranes)
T1 sequence (P21554 whole entry): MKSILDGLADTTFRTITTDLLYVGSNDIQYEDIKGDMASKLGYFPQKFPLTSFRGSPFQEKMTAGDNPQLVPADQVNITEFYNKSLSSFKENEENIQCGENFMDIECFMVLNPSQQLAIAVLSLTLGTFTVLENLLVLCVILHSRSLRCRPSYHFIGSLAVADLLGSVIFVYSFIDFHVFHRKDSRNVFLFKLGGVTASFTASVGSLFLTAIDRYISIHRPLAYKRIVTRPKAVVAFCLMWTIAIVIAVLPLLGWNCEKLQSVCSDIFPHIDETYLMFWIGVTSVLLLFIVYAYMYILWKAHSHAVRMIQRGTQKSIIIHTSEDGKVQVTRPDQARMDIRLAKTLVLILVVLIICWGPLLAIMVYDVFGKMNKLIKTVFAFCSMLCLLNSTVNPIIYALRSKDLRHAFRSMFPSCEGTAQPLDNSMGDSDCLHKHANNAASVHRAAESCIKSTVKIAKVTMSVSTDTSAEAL
Method: (§1) Functional activity of compounds of the invention toward the cannabinoid receptors was determined by stimulation of [^35S]-GTPγS binding using membranes from HEK-293 cells expressing the hCB1 receptor and membranes expressing the hCB2 receptor derived from either Sf9 (PerkinElmer) or from HEK-293 cells. Activities were compared to that of the known cannabinoid full agonist CP55940 (Alexis). The purpose of this experiment is to determine the potency of the compounds of the invention as agonists or antagonists toward each of the receptor tested.
(§2) [^35S]-GTPγS binding reactions were performed at 30° C. in 96-well plates containing 5-10 μg membrane protein suspended in 0.1 ml binding buffer [20 mM HEPES-NaOH, pH 7.4, 5 mM MgCl2, 100 mM NaCl, 0.2% (w/v) bovine serum albumin] supplemented with 50 μM GDP and 0.06 nM-10 μM of the compound being tested. Binding was initiated by the addition of [^35S]GTPγS (0.3 nM final concentration). Incubations were performed for 90 minutes and were terminated by filtration on GF/C filter plates (PerkinEimer). Filters were washed ten times with ice-cold wash buffer (20 mM HEPES-NaOH, pH 7.4, 10 mM sodium pyrophosphate). Non-specific binding was measured in the presence of 15 μM GTPγS.
(§3) Assays were performed in duplicates. Data was analyzed by plotting on the X axis the log concentration against percent of specific [^35S]GTPγS binding out of basal [^35S]GTPγS binding on the Y axis, non-linear regression is then performed using GraphPad Prism, version 3.0 (GraphPad, San Diego, Calif.) to calculate the EC50 and Emax of the compound. The EC50 value represents the concentration at which there is 50% [^35S]GTPγS binding and the Emax value the upper plateau of the curve.

Human CB2 Receptor = target: T2, Human CB2 Receptor (Homo sapiens, UniProt P34972); assay: [35S]GTPγS-binding assay, hCB2; format: biochemical; settings: GTPγS; for agonistic activity toward cannabinoid receptors (in words): hCB1 and hCB2
T2 construct: host or cells: Sf9 or HEK-293 cells (membranes)
T2 sequence (P34972 whole entry): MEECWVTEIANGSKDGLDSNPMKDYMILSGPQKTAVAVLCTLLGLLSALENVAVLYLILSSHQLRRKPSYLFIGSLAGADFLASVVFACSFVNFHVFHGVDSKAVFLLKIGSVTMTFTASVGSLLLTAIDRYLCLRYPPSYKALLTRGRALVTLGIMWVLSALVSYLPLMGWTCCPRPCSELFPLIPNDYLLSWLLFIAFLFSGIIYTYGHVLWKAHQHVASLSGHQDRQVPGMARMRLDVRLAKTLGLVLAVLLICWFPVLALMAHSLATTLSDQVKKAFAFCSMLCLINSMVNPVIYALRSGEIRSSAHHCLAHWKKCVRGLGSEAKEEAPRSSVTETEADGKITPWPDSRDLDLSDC
Method: as §1, §2, §3

[2] = tested on: visceral pain writhing responses; assay: Visceral pain, acetic acid induced writhing responses; format: in vivo, Male ICR mice; settings: Mus musculus, iv, single dose 2 mg/kg i.v., compared to untreated group; read-out: Percent Inhibition of Visceral Pain Writhing Responses
Method: Male ICR mice (average body weight 25 g, Harlan, Israel) were pretreated by i.v. injection at volume dose of 5 ml/kg of vehicle, control and test compounds at various doses. Other routes of administration were tested for selected compounds including i.m. or s.c. injections at volume dose of 2.5 ml/kg and p.o. gavage at volume dose of 5 ml/kg. Compounds were dissolved in CREMOPHOR®:Ethanol and diluted 1:20 in saline prior to injection or gavage. Compounds administered i.v. were injected fifteen minutes before pain induction, whereas compounds administered i.m., s.c. or p.o. were supplied thirty minutes before pain induction, unless otherwise indicated. Each treatment group, except for controls comprising at least 30 animals, was composed of at least 6 animals. Fifteen or thirty minutes after drug administration, depending on the route of administration, the mice were injected i.p. with 10 ml/kg of 0.6% acetic acid and the number of visceral pain related behaviors (writhing movements globally defined as WR, i.e. stretching, contractions of the abdomen accompanied by an elongation of the body and extension of the hind limbs) was counted over a period of 5 minutes, starting 5 minutes after the acetic acid administration. These visceral pain related behaviors were globally defined as writhing responses (WR). The results are expressed as mean number of writhing responses ±SEM. Data were analyzed using analysis of variance (ANOVA) followed by post-hoc Fisher test.

[3] = tested on: carrageenan induced inflammatory pain and paw edema; assay: Inflammatory pain and paw edema induced by carrageenan; format: in vivo, Male Sprague Dawley rats; settings: Rattus norvegicus, ip; 10 mg/kg i.p., 3 hours after carrageenan, reduction in paw swelling; read-out: Percent Inhibition of Inflammatory Pain Responses, Edema
Method: Male Sprague Dawley rats (average body weight 200 g, Harlan, Israel) were transiently sedated by placement on dry ice for the duration of the injections. Rats were injected subcutaneously, in the subplantar region of one (right) paw with 0.1 ml of 2% w/v λ Carrageenan in sterile saline. […] Test compounds were, unless otherwise stated, administered i.p. at initial single dose of 3, 10 or 20 mg/kg, and volume dose of 5 ml/kg, immediately after the carrageenan injection. Selected compounds were also tested p.o. following oral gavage. Vehicle and celecoxib treated animals were used as controls. Each treatment group comprised at least seven animals.
Before induction of inflammatory pain and three hours after injection, the animals reactions to pain stimuli were tested in two systems. The first stimulus was thermal and assessed by the Plantar Test according to Hargreaves, using Ugo Basile Model 7370. The scale was set to an intensity of 50 arbitrary units. The latency time till the animal lift a paw as a reaction to the thermal stimulus was recorded for both the inflamed and non-inflamed hind paws. The second stimulus was mechanical (tactile) and assessed using a Dynamic Plantar Sesthesiomether (Ugo Basile Model 73400-002). […] Finally, the impact on paw edema was assessed. Paw thickness was measured using a dial thickness gauge (Spring-dial, constant low pressure gauge, Mitutoyo, TG/L-1, 0.01 mm) and paw volume was measured using a plethysmometer (model #7150, Ugo Basile, Italy). At the end of the study, animals were euthanized.
The results are measured as the differences between the two hind paws at time 0 and 3 hours both as ALT, for the latency time in the thermal part of the study, and as ΔForce, for the mechanical part of the study. The paw volume is expressed as percent from vehicle treated animals. Results are expressed as mean±SEM for each treatment group and the differences among those groups are analyzed by analysis of variance (ANOVA) followed by post-hoc Tukey's test.
Results refer to i.p. treatment with 10 mg/kg. Results marked with one asterisk refer to a dose 3 mg/kg, whereas two asterisks refer to 20 mg/kg. Celecoxib is included as reference.

[4] = Human CB2 Receptor, NB = no binding
[5] = Human CB2 Receptor, upper plateau of curve, NB = no binding

SMILES	EC50 (Human CB1 Receptor) [nM]	EC50 (Human CB2 Receptor; [4]) [nM]	Emax (Human CB2 Receptor; [5]) [%]	further results
CCCCCCC(C)(C)c1cc(O)c2c(c1)OC(C)(C)[C@@H]1CC=C(CO)C[C@@H]21 [HU-210, reference compound]				less squares crossed ([1]; 0.02 mg/kg i.v.): more than 50%; number of squares crossed (spontaneous locomotor activity) ([1]; 0.02 mg/kg i.v., period of three minutes, vehicle 75.63±6.24): 32.33±10.21; drop of rectal temperature ([1]; 0.02 mg/kg i.v., statistically significant): about 2 °C; sensitivity to touch, average score ([1]; 0.02 mg/kg i.v., scale 0 not sensitive, 1 sensitive, 2 highly sensitive): above 1; rectal temperature ([1]; 0.02 mg/kg i.v., vehicle 38.88±0.11° C.): 36.73±0.29 °C; time spent in the open arms of the elevated plus maze ([1]; 0.02 mg/kg i.v., vehicle about 15%): ~41%
CCCCCCC(C)(C)c1cc(O)c2c(c1)OC1C(O)CCCCC21 (single isomer, unassigned) [Compound C7S-30, 2-(,1-dimethylheptyl)-5,6,7,8,9,9a-hexahydro-4bH-10-oxa-benzo[α]azulen-4,9-diol]	> 10000	1030		Emax (%) (Human CB2 Receptor; [5]): 66%
CCCCCCC(C)(C)c1cc(O)c2c(c1)OC1CCCCC(C(=O)O)C21 (stereo not drawn) [Compound C7S-31, 2-(1,1-Dimethylheptyl)-4-hydroxy-5,6,7,8,9,9a-hexahydro-4bH-10-oxa-benzo[α]azulen-5-carboxylic acid]	> 10000	641	54	
CCCCCCC(C)(C)c1ccc([C@@H]2C[C@H](O)CC[C@H]2CCCO)c(O)c1 [CP55940, reference compound]			30 to 60	Emax (Human CB1 Receptor): 50 to 100%
CCCCCCC(C)(C)c1cc(O)c2c3c(oc2c1)CC(C)(C)CC3 [Compound C6M-10, 3-(1,1-Dimethylheptyl)-7,7-dimethyl-6,7,8,9-tetrahydro-dibenzofuran-1-ol]	5300	25	72	Emax (Human CB1 Receptor): 132%; agonistic activity toward cannabinoid receptors (in words) (Human CB2 Receptor): agonists specific toward the CB2 receptor
CCCCCCC(C)(C)c1cc(O)c2c(c1)OC1C2CCC(C)(C)C1O (centres unmarked) [Compound C6S-8, 3-(1,1-dimethylheptyl)-7,7-dimethyl-5a,6,7,8,9,9a-hexahydro-dibenzofuran-1,6-diol]				inhibition in vivo at 2 mg/kg [2]: 37%; adverse cannabimimetic activities in any of the parameters monitored [1]: None
CCCCCCC(C)(C)c1cc(OC)cc2oc3c(c12)CC(C)(C)CC3=O [Compound C6M-7, 9-(1,1-dimethylheptyl)-7-methoxy-2,2-dimethyl-2,3-dihydro-1H-dibenzofuran-4-one]				inhibition in vivo at 10 mg/kg [3]: 26%; adverse cannabimimetic activities in any of the parameters monitored [1]: None
CCCCCCC(C)(C)c1cc(OCC(=O)N(CC)CC)c2c(c1)OC1C(O)CCCCC21 (centres unmarked) [Compound C7S-17, 2-[2-(1,1-Dimethylheptyl)-9-hydroxy-5,6,7,8,9,9a-hexahydro-4bH-10-oxa-benzo[ ]azulen-4-yloxy]-N,N-diethyl-acetamide]				rectal temperature ([1]; 40 mg/kg i.v., 0.5 hr after injection): 37.84±0.62 °C; rectal temperature below controls ([1]; 40 mg/kg i.v., 0.5 hr after injection, not statistically significant): about 0.9 °C; rectal temperature (in words) ([1]; 40 mg/kg i.v., three hours after injection): back to baseline
CCCCCCC(C)(C)c1cc(O)c2c(c1)OC1C(=NO)CCCC21 (centres unmarked) [Compound C6S-27, 7-(1,1-Dimethylheptyl)-9-hydroxy-2,3,4a,9b-tetrahydro-1H-dibenzofuran-4-one oxime]	> 10000	5560	64	
CCCCCCC(C)(C)c1cc(OC(=O)C=CC(=O)O)c2c(c1)OC1CC(C)(C)CCC21 (centres unmarked) [Compound C6S-37, But-2-enedioic acid mono-[3-(1,1-dimethylheptyl)-7,7-dimethyl-5a,6,7,8,9,9a-hexahydro-dibenzofuran-1-yl]ester]	3970	24	44	Emax (Human CB1 Receptor): 102%; agonistic activity toward cannabinoid receptors (in words) (Human CB2 Receptor): agonists specific toward the CB2 receptor
CCCCCCC(C)(C)c1cc(OC(=O)C=CC(=O)O)c2c(c1)OC1CCCCCC21 (stereo not drawn) [Compound C7S-9, But-2-enedioic acid mono-[2-(1,1-dimethylheptyl)-5,6,7,8,9,9a-hexahydro-4bH-10-oxa-benzo[α]azulen-4-yl]ester]	> 10000	712	52	inhibition in vivo at 2 mg/kg [2]: 26%
CC1(C)CCC2c3c(O)cc(C4(CCc5ccccc5)SCCS4)cc3OC2C1 (centres unmarked) [Compound C6S-38, 7,7-dimethyl-3-(2-phenethyl-[1,3]dithiolan-2-yl)-5a,6,7,8,9,9a-hexahydro-dibenzofuran-1-ol]	> 10000	184	19	

— US20090054376A1, “BENZOFURAN DERIVATIVES WITH THERAPEUTIC ACTIVITIES” (Pharmos Corporation, priority 2005, published 2009)
